One experiment concerns pERK expression. Description: pERK Western blot in cultured mouse keratinocytes. Conditions: inhibitor 10 μM. It counts as cell-based. The method, then: Primary mouse keratinocytes were cultured following previous protocol (Chen et al. J. Biol. Chem. 2016, 291, 10252-10262). The epidermis from the back skin of newborn WT or keratinocyte-Trpv4 cKO mice was separated from the dermis by floating the skin on 0.25% trypsin (Gibco, Gaithersburg, MD) for 14-18 h at 4° C. Basal keratinocytes were separated from the cornified sheets by filtration through a […] cell strainer. Keratinocytes were plated on collagen I-coated dishes or glass coverslips and grown in EME media (Gibco, Gaithersburg, MD) containing 8% chelex (Bio-rad, Hercules, CA)-treated FBS with the final Ca^2+ adjusted to 0.05 mM, bovine pituitary extract (50 μg/mL), epidermal growth factor (5 ng/mL), and lx antibiotics/antimycotics (Gibco, Gaithersburg, MD) in a humidified incubator with 5% CO2 at 37° C. for 5-7 days until use. To knockdown Trpv4 in isolated keratinocytes from newborn keratinocyte-Trpv4 cKO mice, cells were treated with 4-OH tamoxifen at 500 nM for 72 h.
Western Blot. Routine procedures were followed (Chen et al. J. Biol. Chem. 2016, 291, 10252-10262, Chen et al. Pain 2014, 155, 2662-2672). […] Immunoblot band intensity was quantitated using the software Image J and ERK served as a control for pERK expression.

For the next experiment, the target named is T1, hTRPV4 (Homo sapiens, UniProt Q9HBA0).
T1 construct: expressed in transfected cells; host or cells: HEK293 (ATCC CRL-1573)
The experiment in a line: Single-channel recordings of hTRPV4 in HEK293 cells. It counts as biochemical. Conditions: +60 mV; 100 nM GSK101 or 5 μM LPC 18:1. As to the method: Cell culture and transfection. HEK293 cells (ATCC® CRL-1573) were cultured on poly-D-lysine coated coverslips in 24-well plate containing DMEM media with high-Glucose (Gibco, Gaithersburg, MD) supplemented with 10% fetal bovine serum (FBS, HyClone Laboratories, Logan, UT) and 100 U/mL of penicillin/streptomycin (Gibco, Gaithersburg, MD). Cell cultures were maintained with 5% of CO2 in a humidified incubator at 37° C. HEK cells were transfected with rat or human wild type or mutant TRPV4 channels with EGFP or YFP coupled to their C-termini (1.5 μg of plasmid for excised patch clamp and Ca^2+ imaging and 200 ng for single-channel experiments). The jetPEI™ Polyplus transfection reagent (Polyplus Transfection, New York, NY) for electrophysiology or Lipofectamine™ 2000 Reagent (Invitrogen, Waltham, MA) for Ca^2+ imaging were used for transfections per manufacturer's instructions as previously described (Chen et al. Pain 2014, 155, 2662-2672; Morales-Lazaro et al. Nat. Commun. 2016, 7, 13092). To investigate whether miR-146a can directly activate TRPV1 channels or indirectly via TLRs, HEK293 cells were transfected with rTRPV1 or co-transfected rTRPV1 with rTLR7, rTLR2, or rTLR6 (Addgene, Watertown, MA) for Ca^2+ imaging assay. Control cells were transfected with GFP or YFP.
For single-channel recordings, Borosilicate glass […]) pipettes were used. Recordings were obtained at +60 mV by acquiring several traces of 1-3 s duration. The effect of GSK1016790A or LPC 18:1 on single TRPV4 channels was studied in inside-out. Currents were filtered at 2 kHz and sampled at 5 kHz. […] Single-channel openings and closures were identified with the half-threshold crossing technique (Morales-Lazaro et al. Nat. Commun. 2016, 7, 13092). The channel open probability was calculated as the sum of the total open time divided by the sweep duration. Dwell times and amplitude histograms in the closed or open states were collected in logarithmic time histograms according to the Sine-Sigworth transformation (Sigworth et al. Biophys. J. 1987, 52, 1047-1054). Sums of three or two exponential components were fitted to histograms using a least-squares algorithm.

In a further experiment the target is T2, hTRPV4-R746C (Homo sapiens, UniProt Q9HBA0, R746C).
T2 construct: expressed in transfected cells; host or cells: HEK293
The experiment in a line: Inside-out patch-clamp, hTRPV4-R746C. It counts as biochemical. Conditions: 5 μM LPC 18:1. As to the method: Cell culture and transfection. HEK293 cells (ATCC® CRL-1573) were cultured on poly-D-lysine coated coverslips in 24-well plate containing DMEM media with high-Glucose (Gibco, Gaithersburg, MD) supplemented with 10% fetal bovine serum (FBS, HyClone Laboratories, Logan, UT) and 100 U/mL of penicillin/streptomycin (Gibco, Gaithersburg, MD). Cell cultures were maintained with 5% of CO2 in a humidified incubator at 37° C. HEK cells were transfected with rat or human wild type or mutant TRPV4 channels with EGFP or YFP coupled to their C-termini (1.5 μg of plasmid for excised patch clamp and Ca^2+ imaging and 200 ng for single-channel experiments). […]
Electrophysiology. Currents were recorded using the inside-out configuration of the patch-clamp technique (Hamill et al. Pflugers Arch. 1981, 391, 85-100). […] Mean current values in response to GSK1016790A or LPC 18:1 were measured after channel activation had reached the steady-state (˜3 min). […] Currents were low-pass filtered at 2 kHz and sampled at 10 kHz with an EPC 10 amplifier (HEKA Elektronik) and were plotted and analyzed with Igor Pro (Wavemetrics Inc.).
(In general: In patch-clamp work, channel activity is measured electrically.)

Data on 2 molecules can be found in US20240002846A1, “COMPOSITIONS AND METHODS FOR THE DIAGNOSIS AND TREATMENT OF ITCH” (Duke University, priority 2020, published 2024).

Entries after “also recorded” stand apart in the source; their conditions may differ.

T1 sequence (Q9HBA0 whole entry): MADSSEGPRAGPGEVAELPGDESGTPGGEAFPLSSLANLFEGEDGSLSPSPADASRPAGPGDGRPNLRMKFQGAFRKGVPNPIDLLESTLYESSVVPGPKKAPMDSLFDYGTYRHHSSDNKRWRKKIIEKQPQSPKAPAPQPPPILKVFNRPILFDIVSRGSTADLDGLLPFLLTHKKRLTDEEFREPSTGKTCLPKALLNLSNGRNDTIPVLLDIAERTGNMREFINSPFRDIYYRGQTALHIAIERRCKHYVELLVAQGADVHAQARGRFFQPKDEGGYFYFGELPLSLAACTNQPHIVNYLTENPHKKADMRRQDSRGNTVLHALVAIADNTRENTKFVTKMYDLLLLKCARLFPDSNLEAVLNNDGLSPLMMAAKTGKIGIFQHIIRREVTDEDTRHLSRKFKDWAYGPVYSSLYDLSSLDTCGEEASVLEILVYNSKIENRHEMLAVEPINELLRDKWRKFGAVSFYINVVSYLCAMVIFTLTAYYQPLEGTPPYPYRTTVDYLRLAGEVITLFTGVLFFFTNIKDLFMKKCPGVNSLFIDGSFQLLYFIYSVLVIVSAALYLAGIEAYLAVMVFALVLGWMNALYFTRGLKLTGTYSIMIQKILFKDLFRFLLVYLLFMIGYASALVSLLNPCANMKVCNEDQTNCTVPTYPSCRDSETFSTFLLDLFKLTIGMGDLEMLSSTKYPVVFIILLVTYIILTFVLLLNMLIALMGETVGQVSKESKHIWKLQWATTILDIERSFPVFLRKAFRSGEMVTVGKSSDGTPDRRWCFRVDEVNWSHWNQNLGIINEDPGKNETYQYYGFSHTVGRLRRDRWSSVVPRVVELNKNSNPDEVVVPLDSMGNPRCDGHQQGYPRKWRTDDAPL
T2 sequence (Q9HBA0 whole entry R746C): as the sequence (Q9HBA0 whole entry) above, with R746C counted along it

Consider `Cc1c(C(=O)Nc2cccc(C(F)(F)F)c2)cc(-c2ccccc2)n1CCCN1CCOCC1` [HC067047], for which the “effect on LPC-increased pERK expression” value with pERK expression is “eliminated the increase; also recorded: abolished”.

LPC 18:1: on hTRPV4, the “open level (single-channel) amplitude” value amounted to 3.27±0.41 pA, the “open probability (Po)” value was determined as 0.75±0.08 and the “single channel conductance (gi)” value is given as 54.5 pS. Further, the “average activation of currents, normalized to 1 μM GSK101” value on hTRPV4-R746C was found to be 11±4%.
